Results taken from patent publication US20220211861A1, “DRUG CONJUGATES AND METHODS OF USING SAME” (The Board of Trustees of the Leland Staford Junior …, priority 2019, published 2022).
Where no end group is shown, it is not given here.

What was measured:
[1] = target: integrin receptors on U87MG glioblastoma cells; assay: flow cytometry, direct binding of AF488-labelled protein to U87MG cells, 3 h at 4 C
U87MG cells [2] = assay: Direct binding of Alexa Fluor 488-labeled proteins to U87MG cells (flow cytometry); conditions: direct binding of AF488-labeled protein to U87MG cells, 3 h at 4° C.
Procedure: (§1) The binding affinity of the constructs described in Example 1 were measured using U87MG glioblastoma cells. Drug-free protein affinities were measured directly using Alexa Fluor 488-conjugaed proteins and drug conjugates were measured via a competition binding assay displacing Alexa Fluor 488-labeled K. All constructs tested bound to U87MG cells with low-nanomolar affinity (FIG. 9A-B).
(§2) U87MG cells were detached using Enzyme-Free Cell Dissociation Buffer (Gibco). Next, 4×10^4 cells were incubated with varying concentrations (0.01-200 nM) of Alexa Fluor 488 labeled proteins in Integrin Binding Buffer (IBB; 25 mM Tris pH 7.4, 150 mM NaCl, 2 mM CaCl2), 1 mM MgCl2, 1 mM MnCl2, and 0.1% bovine serum albumin (BSA)) for 3 h at 4° C. to minimize internalization. Cells were pelleted and washed twice with 800 μL of PBSA (phosphate buffered saline containing 0.1% bovine serum albumin) and the fluorescence of remaining surface-bound protein was measured by flow cytometry using a Guava EasyCyte 8HT instrument (EMD Millipore). Resulting data were evaluated using FlowJo software (TreeStar Inc) and equilibrium dissociation constants (Kd) were determined using Prism software (GraphPad). Error bars represent the standard deviation of experiments performed in triplicate.

U87MG cells [3] = assay: Indirect (competition) binding assay displacing Alexa Fluor 488-labeled knottin; conditions: competing off 1 nM AF488-2.5F on U87MG cells
Procedure: as §1
as §2, with “1 nM” for “varying concentrations (0.01-200 nM)”, “knottin as a competitor and varying concentrations (0.01-500 nM) of KDC, KFDC, or KADC” for “proteins”, “IBB” for “Integrin Binding Buffer (IBB; 25 mM Tris pH 7.4, 150 mM NaCl, 2 mM CaCl2), 1 mM MgCl2, 1 mM MnCl2, and 0.1% bovine serum albumin (BSA))”

U87MG hip xenografts = assay: Therapeutic efficacy study, once weekly for four weeks, tumors implanted with Matrigel; type: in vivo, Nu/Nu mice; conditions: once weekly for 4 weeks
Procedure: To further investigate each compound, several changes were made to the experimental design. Because of the KDC's rapid systemic clearance, a significant portion of the injected dose is likely lost and the ˜0.6 mg/kg dose was therefore increased substantially. Because dosages for chemotherapeutics are conventionally determined as mass of chemotherapeutic per patient body surface area, a more clinically relevant comparison of equal mass was selected over an equimolar comparison. Next, a once-per-week dosing regimen was selected to coincide with realistic clinical dosing considerations. Finally, tumors were implanted with Matrigel matrix to increase tumor growth and with only 2.5×10^6 cells per injection to decrease initial tumor necrosis. Mice bearing U87MG hip xenografts were equally distributed into the following treatment groups with intravenous injections given once weekly for 4 weeks: KDC, KFDC, KADC, unconjugated proteins, or a PBS control. Each drug conjugate was also evaluated at a low dose and a high dose.
For tumor cell implantation, female Nu/Nu mice (Charles River Laboratory) were anesthetized with 2.5% isoflurane by inhalation with a flow rate of 1 L/min. A volume of 200 μL of 50/50 PBS/Matrigel (Corning), containing 2.5×10^6 U87MG cells, was injected subcutaneously into the right flank. Tumors were allowed to grow for 7 days until reaching a size of approximately 35 mm^2. For therapeutic efficacy studies, mice were binned into experimental groups to ensure equivalent average tumor sizes and starting body weights across all groups.
Mice bearing U87MG flank xenografts, as described above, were injected intravenously with PBS, KDC, KFDC, KADC, or controls proteins. Treatments were administered once per week for four weeks. Tumors were measured three times per week using digital calipers and animal weights were recorded on each dosing day to monitor for potential weight loss as a measure of compound toxicity. Tumor area was calculated as the longest axis of the tumor multiplied by the perpendicular axis. Euthanasia criteria were defined as a tumor area greater than 150 mm^2 or a loss of 20% body weight.

U87MG cells [4] = assay: Measurement of cellular internalization of AF488-labeled proteins; type: cell-based; conditions: AF488-labeled protein, 37° C., 4 h, surface signal quenched
Procedure: The cleavage of the Val-Cit-PAB linker and the subsequent release and mechanism of action of MMAE are dependent upon intracellular delivery. Thus, it was important to validate that each construct internalized efficiently. Internalization was measured by incubating Alexa Fluor 488-conjugated proteins with cells at 37° C. After a 4 h incubation, surface-bound protein was quenched using an anti-AF488 antibody, that binds any exposed fluorophores.
U87MG cells were seeded in 24-well plates (Corning) at a density of 5×10^4 cells per well. After allowing cells to settle for >4 h, media was replaced with fresh media containing 200 nM of Alexa Fluor 488-labeled proteins and supplemented with 1 mM MnCl2. Cells were then incubated at 37° C. for 4 h. Cells were washed with 500 μL of PBS and detached using 20 μL of 0.05% trypsin/EDTA. After neutralizing trypsin and transferring each well into an Eppendorf tube, cells were washed with 800 μL of cold PBSA. Next, cells were pelleted and resuspended on ice in 50 μL of a 1:200 dilution of anti-Alexa Fluor 488 antibody (Invitrogen) to quench surface-bound protein. Cells were washed again with 800 μL of PBSA and the fluorescence of internalized protein was measured by flow cytometry as described above.

Kd [1] | Molecule | Kd (U87MG cells [2]) | Ki (U87MG cells [3]) | tumor growth with unconjugated protein (U87MG hip xenografts) | internalization (U87MG cells [4])
2.5 nM | knottin-Fc fusion (KFc): EETI 2.5F genetically fused to a human IgG1 Fc domain, Alexa Fluor 488-labeled | – | – | – | –
– | KFc: EETI 2.5F genetically fused to a human IgG1 Fc domain (GCPRPRGDNPPLTCSQDSDCLAGCVCGPNGFCG; ends and bridges not checked; also: fused to human IgG1 Fc domain (dimerising)) | 2.5 nM | 1.2 nM | indistinguishable from PBS control mice | from least to greatest, K, KFc, then KAb
2.3 nM | GCPRPRGDNPPLTCSQDSDCLAGCVCGPNGFCG (peptide, part only; not given: carrier IgG1 antibody chains, part only, cysteine pairing not given here; also: genetic fusion to N-terminus of full-length human IgG1 antibody, Alexa Fluor 488 label, site not given here) | – | – | – | –
